Values of other authors, collected in patent US20150010509A1 (priority 2012, published 2015).
“Also recorded” adds a separate entry of the source. Where two headings read alike, the source gives them in different places.

Columns and labels:
[1] = tested on: MDA-MB-231 human breast cancer cells; conditions: cited from earlier work
M. bovis BCG = conditions: cited from earlier work
[2] = tested on: plasma cytokines, kynurenine, tryptophan; conditions: cited from earlier work
[3] = tested on: MDA-MB-231 human breast cancer cells; conditions: SCID mice, cited from earlier work
[4] = tested on: EMT6 mouse mammary tumor cells; conditions: CaPterin suspension 7 mg/kg/day oral, Balb/c mice, cited from earlier work
[5] = tested on: human peripheral blood mononuclear cells (PBMC); conditions: at the concentrations tested; cited from earlier work
[6] = molecular target: T1, IDO (indoleamine 2,3-dioxygenase) (Homo sapiens, UniProt P14902); conditions: cited from earlier work
T1 construct: freshly isolated human peripheral blood mononuclear cells (PBMC); endogenous in cells; host or cells: freshly isolated human PBMC stimulated with PHA or Con A
T1 sequence (P14902 whole entry): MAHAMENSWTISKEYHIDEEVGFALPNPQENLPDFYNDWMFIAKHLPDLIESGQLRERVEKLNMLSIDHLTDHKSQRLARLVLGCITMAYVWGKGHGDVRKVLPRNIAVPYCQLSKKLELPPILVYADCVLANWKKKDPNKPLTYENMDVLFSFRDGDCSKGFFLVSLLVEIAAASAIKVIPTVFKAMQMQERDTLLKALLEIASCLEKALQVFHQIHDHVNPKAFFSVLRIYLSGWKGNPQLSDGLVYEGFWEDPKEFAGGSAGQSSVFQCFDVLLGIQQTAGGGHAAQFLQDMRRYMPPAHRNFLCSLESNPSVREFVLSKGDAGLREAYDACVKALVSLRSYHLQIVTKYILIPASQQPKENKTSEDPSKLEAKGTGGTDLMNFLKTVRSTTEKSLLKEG

[7] = tested on: human peripheral blood mononuclear cells (PBMC); conditions: cited from earlier work
[8] = tested on: mammary gland adenocarcinomas; conditions: CaPterin suspension 7 mg/kg/day, oral gavage, seven days; C3H/HeN-MTV+ female mice; cited from earlier work
hepatitis B virus (HBV) = conditions: cited from earlier work
[9] = tested on: MIP-1β, inducible nitric oxide synthase 2, IDO gene expression; conditions: infected human monocytes; cited from earlier work
[10] = tested on: serum kyn/trp, MCP-1, GM-CSF; conditions: DCP per os 14 days; regression p=0.001; cited from earlier work
[11] = cited from earlier work
[12] = stepwise regression on CaPterin dose, p=0.047
[13] = Unstimulated PBMC + 200 μg/ml CaPterin

O.O.[Ca+2].[Cl-].[Cl-] [Calcium chloride dihydrate, calcium chloride dihydrate]
T/C ([1]; calcium chloride dihydrate 4.2 mg/(kg day), 10×10^6 cells, 70-98 days of treatment): 25%

Nc1nc2nccnc2c(=O)[nH]1.[Ca] [(1:2 mol/mol) calcium pterin, calcium pterin]
T/C ([1]; (1:2 mol/mol) calcium pterin 25 mg/(kg day), 10×10^6 cells, 70-98 days of treatment): 25%

Nc1nc2nccnc2c(=O)[nH]1 [Pterin, pterin]
antitumor activity ([1]; pterin 21 mg/(kg day), nude mice): no antitumor activity

CC(=O)O.CNC(=N)NCCC[C@H](N)C(=O)O [L-NMMA monoacetate]
effect on DCP inhibition of intracellular mycobacterial growth (M. bovis BCG; added to DCP-treated infected human monocytes): reversed the inhibitory effects of DCP on intracellular mycobacterial growth

Nc1nc2c3c(ncc[n+]3[Ca][O]2)n1
plasma IFN-γ [2, 12]: decreases
plasma IL-6 [2, 12]: decreases
plasma IL-10 [2, 12]: increases
plasma kynurenine ([2]; stepwise regression on CaPterin dose, p=0.047, confounded by tumor shrinkage): increases
antitumor efficacy ([3]; 13, 20 and 26 mg/kg CaPterin, oral gavage Monday through Friday for 75 days): no antitumor efficacy
toxicity ([3]; CaPterin suspension over 75 days): no measurable toxicity
animal toxicity determined by decreased body weight ([4]; 15 days): no measurable animal toxicity
effect on tumor growth ([4]; once daily 15 days): no significant effect on tumor growth
toxicity by exclusion method [5]: no toxicity
Kynurenine decrease ([6]; PBMC + Con A + CaPterin): ≦100-fold
Tryptophan ([6]; PBMC + Con A + CaPterin): 17.7 µM
Kynurenine decrease ([6]; PBMC + PHA + CaPterin): ≦100-fold
Tryptophan ([6]; PBMC + PHA + CaPterin): 17.7 µM
Kynurenine [6, 13]: did not significantly affect
Kynurenine/Tryptophan [6, 13]: lower
Tryptophan [6, 13]: did not significantly affect
IDO activity / stimulation-induced tryptophan degradation ([6]; mitogen-stimulated PBMC): suppressed stimulation-induced tryptophan degradation in a dose-dependent manner
neopterin excretion ([7]; PBMC): suppressed
Neopterin [7, 13]: did not influence this level
ratio of Test tumor volumes to Control tumor volumes (T/C) at Day 7 [8]: 10%
T/C ([1]; CaPterin 21 mg/(kg day), after 60 days of treatment, 5×10^6 cells, nude mice): 37%
T/C after 14 days ([1]; CaPterin suspension 7 mg/kg/day, oral gavage once daily 14 days, 5×10^6 cells, nude mice): 41%
treatment toxicity assessed by reductions in body weight ([1]; CaPterin suspension 7 mg/kg/day, oral gavage, 14 days, nude mice): No treatment toxicity
toxicity (appreciable weight loss ≧10%) ([1]; mega-dosed by oral gavage 100 mg/(kg day) for up to 31 days): no observed toxicity

CC(C)(C)C(=O)OCOP(=O)(COCCn1cnc2c(N)ncnc21)OCOC(=O)C(C)(C)C [adefovir dipivoxil]
inhibition of liver HBV DNA (hepatitis B virus (HBV); ADV 10 mg/(kg day)): ~83%

Nc1nc([O-])c2nccnc2n1.Nc1nc([O-])c2nccnc2n1.[Ca+2] [DCP, dipterinyl calcium pentahydrate]
tumor growth relation to plasma cytokines (DCP/APCP regression) ([2]; DCP treated mice, regression p=0.003): decreases with IL-12 and IL-4, and increases with IL-6
C-C chemokine MIP-1β [9]: induction
IDO gene expression [9]: suppressed
inducible nitric oxide synthase 2 [9]: induction
viability of intracellular M. bovis BCG (M. bovis BCG; DCP treatment of infected human monocytes): significant reduction
viability of extracellular M. bovis BCG (M. bovis BCG; DCP treatment): not extracellular
IDO activity, serum kyn/trp [10]: decreased
chemokine MCP-1 [10]: reduced
serum GM-CSF [10]: increased
reduction of OGTT/AUC (area under OGTT curve) ([11]; 7 mg/(kg d) DCP orally in 0.4% carboxymethylcellulose, 21 days, female DIO C57BL/6J mice, p<0.05): 50%
OGTT diabetic state ([11]; optimum dose 7 mg/(kg d) DCP, female DIO mice): significantly improved
inhibition of liver HBV DNA (hepatitis B virus (HBV); DCP 23 mg/(kg d) per os, 14 days): 83%
liver HBV DNA measured by PCR (hepatitis B virus (HBV); DCP per os once daily 14 days, 2.3 to 23 mg/(kg d), female HBV mice): significant dose-response reduction; also recorded: decreased
T/C ([1]; DCP 23 mg/(kg d), 10×10^6 cells, 70-98 days of treatment): 25%
T/C ([1]; DCP 69 mg/(kg d), 10×10^6 cells, 70-98 days of treatment): 50%
